What all share (assay type): cell-based
The target of one test is T1, BRD2 (Homo sapiens, UniProt P25440).
T1 construct: endogenous in cells; host or cells: RS4;11 and MOLM-13 leukemia cells
As to the kind of experiment: Western blot, degradation of BRD2 in MOLM-13 cells. To be noted: 3 h, as compared to Compound A, FIG. 2. On the procedure: (§1) Cells were treated with compounds at the indicated concentrations for 2.5 h and 3 h, respectively, for RS4;11 (see FIG. 1) and MOLM-13 (see FIG. 2) cells. Compound A is ((S)-3-benzyl-6,9-dimethyl-2-((1-methyl-1H-pyrazol-4-yl)ethynyl)-4H,6H-thieno[2,3-e][1,2,4]triazolo[3,4-c][1,4]oxazepine). See Cpd. No. 85 of U.S. Appl. No. 62/295,271.
(§2) Collected cells were lysed in lysis buffer [1% CHAPS, 150 mM NaCl, 20 mM Tris-HCl, 1 mM. EDTA, 1 mM EGTA, and COMPLETE proteinase inhibitor (Roche)] for 30 minutes on ice. Protein concentrations were determined using the Bio-Rad Protein Assay Dye reagent. Whole tumor lysates (20 μg) were separated on a 4-20% Novex gels (Invitrogen). The separated proteins were transferred to a PVDF membrane (BIO-RAD) and the PVDF membrane was then blotted with 5% Blotting-Grade Blocker (BIO-RAD) for 1 hour at room temperature. The primary antibodies used were BRD4 rabbit polyclonal antibody [Bethyl Laboratories, Inc, cat #A301] and BRD2 antibody.
(§3) The BIO-RAD Clarity Western ECL Substrates (BIO-RAD) and HyBlot CL film (Denville) were used for signal development and detection using a SRX-101A tabletop processor (Konica Minolta).
For orientation: A western blot detects proteins with antibodies after separation by electrophoresis.

Another test deals with MDA-MB-474. As to the kind of experiment: WST-8 cell growth inhibition assay, MDA-MB-474. To be noted: WST-8, Table 6. The procedure:
(§4) Cpd. Nos. 7 and 18 were tested in various triple-negative breast cancer cell lines using the WST-8 cell growth assay.
(Tetrazolium assays rely on reduction of a dye to a coloured formazan, in cell work by metabolically active cells.)

For a further test, the system named is MV4; 11. The test is described as follows: CellTiter-Glo cell viability, MV4;11 leukemia cell line. To be noted: Homo sapiens, Table 5. On the procedure:
(§5) Cell growth inhibitory activity of representative Compounds of the Disclosure was determined using the CellTiter-Glo® Luminescent Cell Viability Assay. Cells were seeded in 384-well white opaque cell culture plates at a density of 2,000 cells/well with serially diluted compounds and incubated at 37° C. in an atmosphere of 95% air and 5% CO2 for 4 days. Cell viability was determined using the CellTiter-Glo® Luminescent Cell Viability Assay Kit (Promega, Madison, Wis.) according to the manufacture's instruction. Briefly, a volume of CellTiter-Glo® Reagent equal to the volume of cell culture medium was added to each well, and then the plates were incubated at room temperature for 10-20 minutes. The luminescent signal was measured using a Tecan Infinite M1000 multimode microplate reader (Tecan, Morrisville, N.C.). The half maximal inhibitory concentration (IC50) was calculated using the GraphPad Prism 5 software (GraphPad Software, La Jolla, Calif.).
(§6) Cpd. Nos. 18 and 19 were tested in various leukemia cell lines using the CellTiter-Glo® Luminescent Cell Viability Assay as described in Example 35.

The subject of a further test is KG1. The test is described as follows: CellTiter-Glo cell viability, KG1 leukemia cell line. The note with it: Homo sapiens, KG-1, Table 5. The procedure:
as §5, §6
A general note: Cellular ATP, detected with luciferase, serves as a proxy for viable cell number.

A further test deals with MDA-MB-453. The test is described as follows: WST-8 cell growth inhibition assay, MDA-MB-453. The note with it: Homo sapiens, WST-8, Table 6. On the procedure: as §4
In a further test the target is T2, BRD4 (Homo sapiens, UniProt O60885).
T2 construct: Collected cells were lysed in lysis buffer; endogenous in cells; host or cells: RS4;11 and MOLM-13 leukemia cells
As to the kind of experiment: Western blot, degradation of BRD4 in RS4;11 cells. The note with it: 2.5 h, as compared to Compound A, FIG. 1. The procedure: as §1, §2, §3

In a further test the test system is RS4;11. As to the kind of experiment: CellTiter-Glo cell growth inhibition, RS4;11. The note with it: Homo sapiens. In a few lines:
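Leukemia cells seeded at 2,000 cells/well with serially diluted compounds, 4 days at 37 °C, 5% CO2. Viability by CellTiter-Glo luminescence after 10-20 min at RT. IC50 calculated from the curves.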

In another test the test system is AML3. The test is described as follows: CellTiter-Glo cell viability, AML3 leukemia cell line. The note with it: Table 5. On the procedure: as §5, §6
A further test concerns HL60. As to the kind of experiment: CellTiter-Glo cell viability, HL60 leukemia cell line. To be noted: Homo sapiens, HL-60, Table 5. On the procedure:
as §5, §6

Another test deals with MDA-MB-436. The test is described as follows: WST-8 cell growth inhibition assay, MDA-MB-436. The note with it: Homo sapiens, WST-8, Table 6. The procedure: as §4
Another test deals with MDA-MB-231. The test is described as follows: CellTiter-Glo cell growth inhibition, MDA-MB-231. To be noted: Homo sapiens, MDA-MB-231, 96 h, 4 days, Table 4. In a few lines:
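Cells seeded at 2,000 cells/well with serially diluted compound and incubated 4 days at 37 °C, 5% CO2. Viability read by CellTiter-Glo luminescence after 10-20 min at room temperature; IC50 calculated from the dose-response.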

Molecules are shown by their SMILES. Read-outs that look alike come from different tables or passages of the source.

T1 sequence (P25440 whole entry): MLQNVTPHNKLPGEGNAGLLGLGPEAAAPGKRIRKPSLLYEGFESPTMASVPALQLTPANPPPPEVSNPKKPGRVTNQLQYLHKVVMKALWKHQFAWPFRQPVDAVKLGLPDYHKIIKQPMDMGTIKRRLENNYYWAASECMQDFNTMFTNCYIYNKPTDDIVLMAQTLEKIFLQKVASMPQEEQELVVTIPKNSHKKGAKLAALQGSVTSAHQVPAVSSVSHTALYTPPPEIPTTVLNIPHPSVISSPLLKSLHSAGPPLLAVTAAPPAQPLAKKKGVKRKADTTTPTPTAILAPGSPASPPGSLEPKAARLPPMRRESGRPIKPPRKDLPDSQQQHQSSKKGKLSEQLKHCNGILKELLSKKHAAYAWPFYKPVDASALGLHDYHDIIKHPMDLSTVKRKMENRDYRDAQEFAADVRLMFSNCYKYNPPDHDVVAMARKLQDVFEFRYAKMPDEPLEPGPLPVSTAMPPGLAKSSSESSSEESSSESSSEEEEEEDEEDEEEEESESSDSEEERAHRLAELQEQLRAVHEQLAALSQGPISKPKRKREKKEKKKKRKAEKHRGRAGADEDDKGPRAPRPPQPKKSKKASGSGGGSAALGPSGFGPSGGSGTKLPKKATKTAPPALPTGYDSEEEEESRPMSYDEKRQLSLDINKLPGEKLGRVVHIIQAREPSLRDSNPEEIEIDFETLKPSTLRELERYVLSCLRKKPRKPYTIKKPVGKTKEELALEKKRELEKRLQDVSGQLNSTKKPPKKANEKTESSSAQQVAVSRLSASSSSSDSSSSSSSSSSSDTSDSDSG

Turning to `Cc1nnc2n1-c1sc(C#Cc3cnn(CCCC#Cc4cccc5c4CN(C4CCC(=O)NC4=O)C5=O)c3)c(Cc3ccccc3)c1CO[C@H]2C` (stereo partly drawn) [Cpd. No. 18, 3-(4-(5-(4-(((S)-3-benzyl-6,9-dimethyl-4H,6H-thieno[2,3-e][1,2,4]triazolo[3,4-c][1,4]oxazepin-2-yl)ethynyl)-1H-pyrazol-1-yl)pent-1-yn-1-yl)-1-oxoisoindolin-2-yl) piperidine-2,6-dione], the “degradation of BRD2 protein (Western blot)” value at BRD2 is given as “induce degradation”. The IC50 with MDA-MB-474 turned out to be 0.31 ± 0.01 nM; in the test with MV4; 11 it was 0.06 ± 0.006 nM; in the test on KG1 it was 0.047 ± 0.02 nM; in the test on MDA-MB-453 it was 0.25 ± 0.04 nM; in the test with RS4;11 (RS4-11, 96 h, 4 days, Table 4, read-out: RS-4, 11 IC50), 0.03 nM; with RS4;11 (RS4-11, Table 5, read-out: IC50 (nM) RS4, 11), 0.004 ± 0.001 nM. Moreover, the 50% inhibitory concentration (IC50) came out at 0.03 ± 0.006 nM in the test with AML3, 0.003 ± 0.001 nM in the test on HL60, 1.52 ± 0.21 nM with MDA-MB-436 and 1.5 nM in the test with MDA-MB-231. Besides, the “degradation of BRD4 protein (Western blot)” value at BRD4 was “induce degradation”.

What is called IC50 is the concentration that inhibits the measured activity by half.

The values above are taken from patent US11466028B2, “Fused 1,4-oxazepines as BET protein degraders” (THE REGENTS OF THE UNIVERSITY OF MICHIGAN, priority 2016, dated 2022).
